Like-named read-outs stand apart in the source and are kept apart here.
What was measured:
Assay in all cases: Kinase assay, binding constants (Kd), kinase-tagged T7 phage, qPCR
FGFR1 = FGFR1 (Homo sapiens (Human), UniProt P11362)
Outline: (§1)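 Competition binding: T7 phage-tagged kinase + biotin-ligand beads + compound (11 pts, 3-fold, 0.9% DMSO). Elution 30 min RT with free ligand; qPCR quantitation. Kd via Hill fit, slope −1.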

FGFR2 = FGFR2 (Homo sapiens (Human), UniProt P21802)
Outline: as §1

FGFR3 = FGFR3 (Homo sapiens (Human), UniProt P22607)
Chain of FGFR3 (P22607 23-806): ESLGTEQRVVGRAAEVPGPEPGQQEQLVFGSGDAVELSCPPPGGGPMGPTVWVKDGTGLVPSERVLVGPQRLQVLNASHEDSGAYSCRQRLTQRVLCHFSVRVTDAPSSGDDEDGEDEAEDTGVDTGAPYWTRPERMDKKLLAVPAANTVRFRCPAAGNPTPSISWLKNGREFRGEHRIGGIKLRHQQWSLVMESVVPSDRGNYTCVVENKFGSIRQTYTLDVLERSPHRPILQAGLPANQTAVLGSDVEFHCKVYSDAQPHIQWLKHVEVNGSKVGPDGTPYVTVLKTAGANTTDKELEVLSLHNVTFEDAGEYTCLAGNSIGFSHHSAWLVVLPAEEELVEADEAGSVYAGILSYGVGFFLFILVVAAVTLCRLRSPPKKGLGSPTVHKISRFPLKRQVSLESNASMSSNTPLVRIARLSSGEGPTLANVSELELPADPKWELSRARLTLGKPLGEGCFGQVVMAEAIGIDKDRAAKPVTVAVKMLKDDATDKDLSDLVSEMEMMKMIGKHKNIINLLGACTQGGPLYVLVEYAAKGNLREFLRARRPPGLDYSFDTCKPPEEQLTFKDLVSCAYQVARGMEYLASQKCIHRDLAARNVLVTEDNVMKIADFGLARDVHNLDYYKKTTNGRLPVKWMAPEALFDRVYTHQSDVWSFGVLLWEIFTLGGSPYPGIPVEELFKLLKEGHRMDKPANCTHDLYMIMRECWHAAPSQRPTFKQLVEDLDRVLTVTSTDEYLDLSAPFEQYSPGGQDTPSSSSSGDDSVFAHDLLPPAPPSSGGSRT
Outline: as §1

FGFR3 (V555M) = FGFR3 (V555M) (Homo sapiens (Human), UniProt P22607, V555M); details: V555M mutant
Chain of FGFR3 (V555M) (P22607 23-806 V555M): as the sequence (P22607 23-806) above, with V533M counted along it
Outline: as §1

FGFR4 = FGFR4 (Homo sapiens (Human), UniProt P22455)
Chain of FGFR4 (P22455 22-802): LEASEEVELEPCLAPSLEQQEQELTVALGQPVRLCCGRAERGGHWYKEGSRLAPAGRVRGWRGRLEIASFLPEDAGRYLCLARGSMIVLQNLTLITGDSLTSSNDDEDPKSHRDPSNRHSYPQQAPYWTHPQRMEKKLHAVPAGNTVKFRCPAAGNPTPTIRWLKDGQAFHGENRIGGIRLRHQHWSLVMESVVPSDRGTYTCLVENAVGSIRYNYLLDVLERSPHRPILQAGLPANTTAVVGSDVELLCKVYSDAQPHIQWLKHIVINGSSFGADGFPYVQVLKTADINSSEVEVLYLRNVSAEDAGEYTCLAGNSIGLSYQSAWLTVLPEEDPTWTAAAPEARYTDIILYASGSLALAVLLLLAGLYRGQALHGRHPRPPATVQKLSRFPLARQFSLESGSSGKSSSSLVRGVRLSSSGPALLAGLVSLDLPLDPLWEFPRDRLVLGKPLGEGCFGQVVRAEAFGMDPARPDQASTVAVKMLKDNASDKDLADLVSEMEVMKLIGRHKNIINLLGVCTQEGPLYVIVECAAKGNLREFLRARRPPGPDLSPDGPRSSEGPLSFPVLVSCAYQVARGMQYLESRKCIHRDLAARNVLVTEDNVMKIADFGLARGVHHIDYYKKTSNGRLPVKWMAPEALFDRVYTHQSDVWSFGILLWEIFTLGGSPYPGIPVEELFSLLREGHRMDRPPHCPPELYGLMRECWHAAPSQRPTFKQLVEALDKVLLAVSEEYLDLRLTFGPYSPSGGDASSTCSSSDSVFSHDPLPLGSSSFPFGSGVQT
Outline: as §1

Chain of FGFR2 (P21802 22-821): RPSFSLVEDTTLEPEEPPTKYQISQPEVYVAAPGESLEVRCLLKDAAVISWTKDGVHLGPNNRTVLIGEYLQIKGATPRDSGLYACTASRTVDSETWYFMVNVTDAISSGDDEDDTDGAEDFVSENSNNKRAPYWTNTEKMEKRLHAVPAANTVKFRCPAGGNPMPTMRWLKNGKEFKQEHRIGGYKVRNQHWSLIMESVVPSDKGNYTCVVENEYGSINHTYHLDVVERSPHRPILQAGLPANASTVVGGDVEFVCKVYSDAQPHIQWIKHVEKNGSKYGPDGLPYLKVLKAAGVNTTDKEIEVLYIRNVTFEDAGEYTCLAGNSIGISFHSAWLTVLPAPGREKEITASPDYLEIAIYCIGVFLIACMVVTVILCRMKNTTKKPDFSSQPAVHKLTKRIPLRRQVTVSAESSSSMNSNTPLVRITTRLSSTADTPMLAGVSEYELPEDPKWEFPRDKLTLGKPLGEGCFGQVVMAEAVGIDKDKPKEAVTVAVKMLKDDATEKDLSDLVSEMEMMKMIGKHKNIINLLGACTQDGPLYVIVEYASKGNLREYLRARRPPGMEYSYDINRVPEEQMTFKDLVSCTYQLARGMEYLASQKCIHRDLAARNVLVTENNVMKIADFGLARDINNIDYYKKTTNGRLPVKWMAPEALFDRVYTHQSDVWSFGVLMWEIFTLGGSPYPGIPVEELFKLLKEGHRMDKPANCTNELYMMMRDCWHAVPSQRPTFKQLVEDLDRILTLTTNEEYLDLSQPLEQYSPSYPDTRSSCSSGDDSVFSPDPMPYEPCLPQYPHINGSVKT
Chain of FGFR1 (P11362 22-822): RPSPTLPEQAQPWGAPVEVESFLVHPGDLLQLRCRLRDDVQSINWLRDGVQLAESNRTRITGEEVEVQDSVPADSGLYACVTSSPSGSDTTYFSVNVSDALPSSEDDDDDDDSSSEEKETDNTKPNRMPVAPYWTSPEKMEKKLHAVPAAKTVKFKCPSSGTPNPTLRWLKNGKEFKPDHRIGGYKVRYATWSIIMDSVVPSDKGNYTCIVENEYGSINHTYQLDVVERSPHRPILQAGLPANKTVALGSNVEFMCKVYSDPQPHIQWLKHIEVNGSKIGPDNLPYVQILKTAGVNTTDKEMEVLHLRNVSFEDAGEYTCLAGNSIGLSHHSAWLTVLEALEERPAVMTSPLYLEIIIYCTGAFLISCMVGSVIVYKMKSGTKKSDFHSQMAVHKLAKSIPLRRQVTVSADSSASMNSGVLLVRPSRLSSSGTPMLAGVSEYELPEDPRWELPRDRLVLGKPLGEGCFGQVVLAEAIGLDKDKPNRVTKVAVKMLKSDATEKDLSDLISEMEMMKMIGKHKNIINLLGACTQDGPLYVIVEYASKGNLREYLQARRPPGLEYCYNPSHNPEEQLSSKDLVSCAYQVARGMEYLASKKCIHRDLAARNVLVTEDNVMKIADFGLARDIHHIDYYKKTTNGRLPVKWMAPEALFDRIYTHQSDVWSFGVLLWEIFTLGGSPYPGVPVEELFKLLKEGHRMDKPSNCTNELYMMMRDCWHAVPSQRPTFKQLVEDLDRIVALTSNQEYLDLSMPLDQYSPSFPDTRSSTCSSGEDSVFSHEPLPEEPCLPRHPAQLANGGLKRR

| Kd (FGFR1) | Kd (FGFR2) | Kd (FGFR3) | Kd (FGFR3 (V555M)) | Kd (FGFR4) | Kd (FGFR3; given as a number) | Compound |
| --- | --- | --- | --- | --- | --- | --- |
| 100 to 300 nM | 100 to 300 nM | 20 to 100 nM | 1 to 20 nM | 1 to 20 nM |  | C[C@@H](Oc1ccc2[nH]nc(-c3cnc(N4CC5(CN(CC(F)F)C5)C4)c(C#N)c3)c2c1)c1c(Cl)cncc1Cl [Example 330, (R)-5-(5-(1-(3,5-dichloropyridin-4-yl)ethoxy)-1H-indazol-3-yl)-2-(6-(2,2-difluoroethyl)-2,6-diazaspiro[3.3]heptan-2-yl)nicotinonitrile] |
| 100 to 300 nM | 100 to 300 nM | 1 to 20 nM | 1 to 20 nM | 1 to 20 nM |  | C[C@@H](Oc1ccc2[nH]nc(-c3cnc(N4CC5C(O)C5C4)c(C#N)c3)c2c1)c1c(Cl)cncc1Cl (stereo partly drawn) [Example 331, 5-(5-((R)-1-(3,5-dichloropyridin-4-yl)ethoxy)-1H-indazol-3-yl)-2-(6-hydroxy-3-azabicyclo[3.1.0]hexan-3-yl)nicotinonitrile] |
| 20 to 100 nM | 20 to 100 nM | 1 to 20 nM | 1 to 20 nM | 1 to 20 nM |  | C[C@@H](Oc1ccc2[nH]nc(-c3cnc(N4CCC[C@@H]4CO)c(C#N)c3)c2c1)c1c(Cl)cncc1Cl [Example 332, 5-(5-((R)-1-(3,5-dichloropyridin-4-yl)ethoxy)-1H-indazol-3-yl)-2-((R)-2-(hydroxymethyl)pyrrolidin-1-yl)nicotinonitrile] |
| 100 to 300 nM | 100 to 300 nM | 20 to 100 nM | 1 to 20 nM | 1 to 20 nM |  | COc1cc2[nH]nc(-c3cnc(N4CCCC4)c(C#N)c3)c2cc1O[C@H](C)c1c(Cl)cncc1Cl [Example 333, 5-[5-[(1R)-1-(3,5-dichloro-4-pyridyl)ethoxy]-6-methoxy-1H-indazol-3-yl]-2-pyrrolidin-1-yl-pyridine-3-carbonitrile] |
| 20 to 100 nM | 20 to 100 nM | 1 to 20 nM | 1 to 20 nM | 1 to 20 nM |  | C[C@@H](Oc1ccc2[nH]nc(-c3cnc(N4CCC[C@H]4CO)c(C#N)c3)c2c1)c1c(Cl)cncc1Cl [Example 334, 5-(5-((R)-1-(3,5-dichloropyridin-4-yl)ethoxy)-1H-indazol-3-yl)-2-((S)-2-(hydroxymethyl)pyrrolidin-1-yl)nicotinonitrile] |
| 1 to 20 nM | 20 to 100 nM | 1 to 20 nM | 1 to 20 nM | 1 to 20 nM |  | Cc1cnnc(C)c1[C@@H](C)Oc1ccc2[nH]nc(-c3cnc(N4CCC[C@@H]4CO)c(C#N)c3)c2c1 [Example 335, 5-(5-((R)-1-(3,5-dimethylpyridazin-4-yl)ethoxy)-1H-indazol-3-yl)-2-((R)-2-(hydroxymethyl)pyrrolidin-1-yl)nicotinonitrile] |
| 20 to 100 nM | 20 to 100 nM | 20 to 100 nM | 1 to 20 nM | 1 to 20 nM |  | Cc1cnnc(C)c1[C@@H](C)Oc1ccc2[nH]nc(-c3cnc(N4CCC[C@H]4CO)c(C#N)c3)c2c1 [Example 336, 5-(5-((R)-1-(3,5-dimethylpyridazin-4-yl)ethoxy)-1H-indazol-3-yl)-2-((S)-2-(hydroxymethyl)pyrrolidin-1-yl)nicotinonitrile] |
| 20 to 100 nM | 100 to 300 nM | 20 to 100 nM | 1 to 20 nM | 1 to 20 nM |  | C[C@@H](Oc1ccc2[nH]nc(-c3cnc(N4CC5(C4)CN(S(C)(=O)=O)C5)c(C#N)c3)c2c1)c1c(Cl)cncc1Cl [Example 337, (R)-5-(5-(1-(3,5-dichloropyridin-4-yl)ethoxy)-1H-indazol-3-yl)-2-(6-(methylsulfonyl)-2,6-diazaspiro[3.3]heptan-2-yl)nicotinonitrile] |
| 100 to 300 nM | > 300 nM | 20 to 100 nM | 1 to 20 nM | 1 to 20 nM |  | C[C@@H](Oc1ccc2[nH]nc(-c3cnc(N4CC5(CCCN(S(C)(=O)=O)C5)C4)c(C#N)c3)c2c1)c1c(Cl)cncc1Cl [Example 338, (R)-5-(5-(1-(3,5-dichloropyridin-4-yl)ethoxy)-1H-indazol-3-yl)-2-(6-(methylsulfonyl)-2,6-diazaspiro[3.5]nonan-2-yl)nicotinonitrile] |
| 1 to 20 nM | 1 to 20 nM | 1 to 20 nM | 1 to 20 nM | 1 to 20 nM |  | COc1cc2[nH]nc(-c3cnc(N4CC5(CCS(=O)(=O)C5)C4)c(C#N)c3)c2cc1O[C@H](C)c1c(Cl)cncc1Cl [Example 339, (R)-5-(5-(1-(3,5-dichloropyridin-4-yl)ethoxy)-6-methoxy-1H-indazol-3-yl)-2-(6,6-dioxido-6-thia-2-azaspiro[3.4]octan-2-yl)nicotinonitrile] |
| 100 to 300 nM | 100 to 300 nM | 1 to 20 nM | 100 to 300 nM | 1 to 20 nM |  | C[C@@H](Oc1ccc2[nH]nc(-c3cnc(N4CC5(CCCS(=O)(=O)C5)C4)c(C#N)c3)c2c1)c1c(Cl)cncc1Cl [Example 340, (R)-5-(5-(1-(3,5-dichloropyridin-4-yl)ethoxy)-1H-indazol-3-yl)-2-(6,6-dioxido-6-thia-2-azaspiro[3.5]nonan-2-yl)nicotinonitrile] |
| 20 to 100 nM | 20 to 100 nM | 1 to 20 nM | 1 to 20 nM | 1 to 20 nM |  | COc1cc2[nH]nc(-c3cnc(N4CC5(C4)CN(S(C)(=O)=O)C5)c(C#N)c3)c2cc1O[C@H](C)c1c(Cl)cnc(C)c1Cl [Example 341, 5-[5-[(1R)-1-(3,5-dichloro-2-methyl-4-pyridyl)ethoxy]-6-methoxy-1H-indazol-3-yl]-2-(2-methylsulfonyl-2,6-diazaspiro[3.3]heptan-6-yl)pyridine-3-carbonitrile] |
| 20 to 100 nM | 1 to 20 nM | 1 to 20 nM | 1 to 20 nM | 1 to 20 nM |  | COc1cc2[nH]nc(-c3cnc(N4CC5(C4)CN(S(C)(=O)=O)C5)c(C#N)c3)c2cc1O[C@H](C)c1c(Cl)cncc1Cl [Example 342, 5-[5-[(1R)-1-(3,5-dichloro-4-pyridyl)ethoxy]-6-methoxy-1H-indazol-3-yl]-2-(2-methylsulfonyl-2,6-diazaspiro[3.3]heptan-6-yl)pyridine-3-carbonitrile] |
| 20 to 100 nM | 20 to 100 nM | 1 to 20 nM | 1 to 20 nM | 1 to 20 nM |  | C[C@@H](Oc1ccc2[nH]nc(-c3cnc(N4CC5(CCS(=O)(=O)C5)C4)c(C#N)c3)c2c1)c1c(Cl)cncc1Cl [Example 343, (R)-5-(5-(1-(3,5-dichloropyridin-4-yl)ethoxy)-1H-indazol-3-yl)-2-(6,6-dioxido-6-thia-2-azaspiro[3.4]octan-2-yl)nicotinonitrile] |
| > 300 nM | > 300 nM | 100 to 300 nM | 20 to 100 nM | 1 to 20 nM |  | COc1cc(-c2n[nH]c3ccc(O[C@H](C)c4c(Cl)cncc4Cl)cc23)cnc1N1CC2(C1)CN(S(C)(=O)=O)C2 [Example 344, (R)-5-(1-(3,5-dichloropyridin-4-yl)ethoxy)-3-(5-methoxy-6-(6-(methylsulfonyl)-2,6-diazaspiro[3.3]heptan-2-yl)pyridin-3-yl)-1H-indazole] |
| > 300 nM | > 300 nM | 20 to 100 nM | 20 to 100 nM | 1 to 20 nM |  | C[C@@H](Oc1ccc2[nH]nc(-c3cnc(N4CC(C(F)F)C4)c(C#N)c3)c2c1)c1c(Cl)cncc1Cl [Example 345, (R)-5-(5-(1-(3,5-dichloropyridin-4-yl)ethoxy)-1H-indazol-3-yl)-2-(3-(difluoromethyl)azetidin-1-yl)nicotinonitrile] |
| 1 to 20 nM | 1 to 20 nM | 1 to 20 nM | 1 to 20 nM | 1 to 20 nM |  | COc1cc2[nH]nc(-c3cnc(N4CC5(CCCS(=O)(=O)C5)C4)c(C#N)c3)c2cc1O[C@H](C)c1c(Cl)cncc1Cl [Example 346, (R)-5-(5-(1-(3,5-dichloropyridin-4-yl)ethoxy)-6-methoxy-1H-indazol-3-yl)-2-(6,6-dioxido-6-thia-2-azaspiro[3.5]nonan-2-yl)nicotinonitrile] |
| > 300 nM | > 300 nM | 20 to 100 nM | 20 to 100 nM | 1 to 20 nM |  | C[C@@H](Oc1ccc2[nH]nc(-c3cnc(N4CC(C(F)(F)F)C4)c(C#N)c3)c2c1)c1c(Cl)cncc1Cl [Example 347, (R)-5-(5-(1-(3,5-dichloropyridin-4-yl)ethoxy)-1H-indazol-3-yl)-2-(3-(trifluoromethyl)azetidin-1-yl)nicotinonitrile] |
| 20 to 100 nM | > 300 nM | 1 to 20 nM | 1 to 20 nM | 1 to 20 nM |  | C[C@@H](Oc1ccc2[nH]nc(-c3cnc(N4CC(C#N)C4)c(C#N)c3)c2c1)c1c(Cl)cncc1Cl [Example 348, (R)-2-(3-cyanoazetidin-1-yl)-5-(5-(1-(3,5-dichloropyridin-4-yl)ethoxy)-1H-indazol-3-yl)nicotinonitrile] |
| 100 to 300 nM | 100 to 300 nM | 20 to 100 nM | 1 to 20 nM | 1 to 20 nM |  | Cc1ncc(Cl)c([C@@H](C)Oc2ccc3[nH]nc(-c4cnc(N5CC6(CCCS(=O)(=O)C6)C5)c(C#N)c4)c3c2)c1Cl [Example 349, 5-[5-[(1R)-1-(3,5-dichloro-2-methyl-4-pyridyl)ethoxy]-1H-indazol-3-yl]-2-(6,6-dioxo-6λ^6-thia-2-azaspiro[3.5]nonan-2-yl)pyridine-3-carbonitrile] |
| > 300 nM | 100 to 300 nM |  | 20 to 100 nM | 1 to 20 nM | 90 nM | Cc1ncc(Cl)c([C@@H](C)Oc2ccc3[nH]nc(-c4cnc(N5CC6(CCCN(S(C)(=O)=O)C6)C5)c(C#N)c4)c3c2)c1Cl [Example 350, 5-[5-[(1R)-1-(3,5-dichloro-2-methyl-4-pyridyl)ethoxy]-1H-indazol-3-yl]-2-(8-methylsulfonyl-2,8-diazaspiro[3.5]nonan-2-yl)pyridine-3-carbonitrile] |

From patent US20240109865A1, “INDAZOLE COMPOUNDS AS KINASE INHIBITORS” (TYRA BIOSCIENCES, INC., priority 2020, published 2024)
